According to patent publication US6130239A, “4-Alkenyl- and 4-alkynyloxindoles” (Hoffmann-La Roche Inc., priority 1999, dated 2000):
Structures can show the parent of a compound that is named as a salt.

Target: T1, Cyclin E/CDK2 (Homo sapiens, UniProt P24941)
T1 construct: made in house; host or cells: insect cells
Test: CDK2 FlashPlate Assay (inhibition of Rb phosphorylation by Cyclin E/CDK2)
Type: biochemical
Conditions: for IC50: Table IA, recombinant human Cyclin E/CDK2, Rb substrate, 25 minutes room temperature; for inhibition at 1 µM: Table IB, concentration ≤1.0 μM

| SMILES | IC50 [µM] | inhibition at 1 µM [%] |
| --- | --- | --- |
| COC(=O)CCC#Cc1c([N+](=O)[O-])ccc2c1/C(=C/c1[nH]ccc1OC)C(=O)N2 [EE, (Z)-5-[2,3-Dihydro-3-[(3-methoxy-1H-pyrrol-2-yl)methylene]-5-nitro-2-oxo-1H-indol-4-yl]-4-pentynoic acid methyl ester] | – | > 60 |
| COc1cc[nH]c1/C=C1\C(=O)Nc2cccc(C#CCCC(=O)O)c21 [H, (Z)-5-[2,3-Dihydro-3-[(3-methoxy-1H-pyrrol-2-yl)methylene]-2-oxo-1H-indol-4-yl]-4-pentynoic acid] | < 4 | – |
| COc1cc[nH]c1/C=C1\C(=O)Nc2ccc(NC(=O)Cc3cccs3)c(C#CCCC(=O)O)c21 [HH, (Z)-5-[2,3-Dihydro-3-[(3-methoxy-1H-pyrrol-2-yl)methylene]-2-oxo-5-[(2-thienylacetyl)amino]-1H-indol-4-yl]-4-pentynoic acid] | < 4 | – |
| COc1cc[nH]c1/C=C1\C(=O)Nc2cccc(C#CCN)c21 [II, (Z)-4-(3-Amino-1-propynyl)-1,3-dihydro-3-[(3-methoxy-1H-pyrrol-2-yl)methylene]-2H-indol-2-one trifluoroacetate salt] | < 4 | – |
| COc1cc[nH]c1/C=C1\C(=O)Nc2cccc(C#CCCC(N)=O)c21 [J, (Z)-5-[2,3-Dihydro-3-[(3-methoxy-1H-pyrrol-2-yl)methylene]-2-oxo-1H-indol-4-yl]-4-pentynamide] | < 4 | – |
| CNCC#Cc1cccc2c1/C(=C/c1[nH]ccc1OC)C(=O)N2 [JJ, (Z)-1,3-Dihydro-3-[(3-methoxy-1H-pyrrol-2-yl)methylene]-4-[3-(N-methylamino)-1-propynyl]-2H-indol-2-one trifluoroacetate salt] | < 4 | – |
| COc1cc[nH]c1/C=C1\C(=O)Nc2cccc(C#CCCCC(N)=O)c21 [K, (Z)-6-[2,3-Dihydro-3-[(3-methoxy-1H-pyrrol-2-yl)methylene]-2-oxo-1H-indol-4-yl]-5-hexynamide] | < 4 | – |
| COc1cc[nH]c1/C=C1\C(=O)Nc2cccc(C#CCNCc3ccccc3)c21 [KK, (Z)-1,3-Dihydro-3-[(3-methoxy-1H-pyrrol-2-yl)methylene]-4-[3-(N-phenylmethylamino)-1-propynyl]-2H-indol-2-one] | < 4 | – |
| COc1cc[nH]c1/C=C1\C(=O)Nc2cccc(C#CC(C)(C)O)c21 [L, (Z)-1,3-Dihydro-4-(3-hydroxy-3-methyl-1-butynyl)-3-[(3-methoxy-1H-pyrrol-2-yl)methylene]-2H-indol-2-one] | < 4 | – |
| COC(=O)NCC#Cc1cccc2c1/C(=C/c1[nH]ccc1OC)C(=O)N2 [LL, (Z)-[3-[2,3-Dihydro-3-[(3-methoxy-1H-pyrrol-2-yl)methylene]-2-oxo-1H-indol-4-yl]-2-propynyl]carbamic acid methyl ester] | < 4 | – |
| COc1cc[nH]c1/C=C1\C(=O)Nc2cccc(C#CC3(O)CCCCC3)c21 [M, (Z)-1,3-Dihydro-4-[(1-hydroxycyclohexyl)ethynyl]-3-[(3-methoxy-1H-pyrrol-2-yl)methylene]-2H-indol-2-one] | < 4 | – |
| COc1cc[nH]c1/C=C1\C(=O)Nc2cccc(C#CCOC(N)=O)c21 [MM, (Z)-Carbamic acid 3-[2,3-dihydro-3-[(3-methoxy-1H-pyrrol-2-yl)methylene]-2-oxo-1H-indol-4-yl]-2-propynyl ester] | < 4 | – |
| CNC(=O)OCC#Cc1cccc2c1/C(=C/c1[nH]ccc1OC)C(=O)N2 [NN, (Z)-N-Methylcarbamic acid 3-[2,3-dihydro-3-[(3-methoxy-1H-pyrrol-2-yl)methylene]-2-oxo-1H-indol-4-yl]-2-propynyl ester] | < 4 | – |
| CCCCC[C@H](O)C#Cc1cccc2c1/C(=C/c1[nH]ccc1OC)C(=O)N2 [U, (S)-(Z)-1,3-Dihydro-4-(3-hydroxy-1-octynyl)-3-[(3-methoxy-1H-pyrrol-2-yl)methylene]-2H-indol-2-one] | < 4 | – |
| COC(=O)C(CC#Cc1cccc2c1/C(=C/c1[nH]ccc1OC)C(=O)N2)C(=O)OC [V, (Z)-[3-[2,3-Dihydro-3-[(3-methoxy-1H-pyrrol-2-yl)methylene]-2-oxo-1H-indol-4-yl]-2-propynyl]propanedioic acid dimethyl ester] | < 4 | – |
| COc1cc[nH]c1/C=C1\C(=O)Nc2cccc(C#CCC(C(=O)O)C(=O)O)c21 [W, (Z)-[3-[2,3-Dihydro-3-[(3-methoxy-1H-pyrrol-2-yl)methylene]-2-oxo-1H-indol-4-yl]-2-propynyl]propanedioic acid] | < 4 | – |
| COCC#Cc1cccc2c1/C(=C/c1[nH]ccc1OC)C(=O)N2 [X, (Z)-1,3-Dihydro-4-(3-methoxy-1-propynyl)-3-[(3-methoxy-1H-pyrrol-2-yl)methylene]-2H-indol-2-one] | < 4 | – |
| COc1cc[nH]c1/C=C1\C(=O)Nc2cccc(C#CCO)c21 [Y, (Z)-1,3-Dihydro-4-(3-hydroxy-1-propynyl)-3-[(3-methoxy-1H-pyrrol-2-yl)methylene]-2H-indol-2-one] | < 4 | – |
| COc1cc[nH]c1/C=C1\C(=O)Nc2ccc([N+](=O)[O-])c(C#CCO)c21 [Z, (Z)-1,3-Dihydro-4-(3-hydroxy-1-propynyl)-3-[(3-methoxy-1H-pyrrol-2-yl)methylene]-5-nitro-2H-indol-2-one] | – | > 90 |
| Cc1nc[nH]c1/C=C1\C(=O)Nc2ccc(F)c(C#CCNC(N)=O)c21 [ZZ, (Z)-[3-[5-fluoro-2,3-dihydro-3-[(4-methyl-1H-imidazol-5-yl)methylene]-2-oxo-1H-indol-4-yl]-2-propynyl]urea] | < 4 | – |

The remaining lines, values ahead:

| IC50 [µM] | inhibition at 1 µM [%] | SMILES |
| --- | --- | --- |
| < 4 | – | CCC(C)(O)C#Cc1cccc2c1/C(=C/c1[nH]ccc1OC)C(=O)N2 (racemic) [D, rac-(Z)-1,3-Dihydro-4-(3-hydroxy-3-methyl-1-pentynyl)-3-[(3-methoxy-1H-pyrrol-2-yl)methylene]-2H-indol-2-one] |
| < 4 | – | CCCC(C)(O)C#Cc1cccc2c1/C(=C/c1[nH]ccc1OC)C(=O)N2 (racemic) [N, rac-(Z)-1,3-Dihydro-4-(3-hydroxy-3-methyl-1-hexynyl)-3-[(3-methoxy-1H-pyrrol-2-yl)methylene]-2H-indol-2-one] |
| < 4 | – | COc1cc[nH]c1/C=C1\C(=O)Nc2cccc(C#CC(C)(O)CC(C)C)c21 (racemic) [O, rac-(Z)-1,3-Dihydro-4-(3,5-dimethyl-3-hydroxy-1-hexynyl)-3-[(3-methoxy-1H-pyrrol-2-yl)methylene]-2H-indol-2-one] |
| < 4 | – | CCCCCC(O)C#Cc1cccc2c1/C(=C/c1[nH]ccc1OC)C(=O)N2 (racemic) [Q, rac-(Z)-1,3-Dihydro-4-(3-hydroxy-1-octynyl)-3-[(3-methoxy-1H-pyrrol-2-yl)methylene]-2H-indol-2-one] |
| < 4 | – | CCC(O)C#Cc1cccc2c1/C(=C/c1[nH]ccc1OC)C(=O)N2 (racemic) [R, rac-(Z)-1,3-Dihydro-4-(3-hydroxy-1-pentynyl)-3-[(3-methoxy-1H-pyrrol-2-yl)methylene]-2H-indol-2-one] |
| < 4 | – | COc1cc[nH]c1/C=C1\C(=O)Nc2cccc(C#CCCCCO)c21 [A, (Z)-1,3-Dihydro-4-(6-hydroxy-1-hexynyl)-3-[(3-methoxy-1H-pyrrol-2-yl)methylene]-2H-indol-2-one] |
| < 4 | – | COc1cc[nH]c1/C=C1\C(=O)Nc2cccc(C#CC3(O)CCCC3)c21 [AA, (Z)-1,3-Dihydro-4-[(1-hydroxycyclopentyl)ethynyl]-3-[(3-methoxy-1H-pyrrol-2-yl)methylene]-2H-indol-2-one] |
| < 4 | – | COc1cc[nH]c1/C=C1\C(=O)Nc2cccc(C#CCCO)c21 [C, (Z)-1,3-Dihydro-4-(4-hydroxy-1-butynyl)-3-[(3-methoxy-1H-pyrrol-2-yl)methylene]-2H-indol-2-one] |
| < 4 | – | COc1cc[nH]c1/C=C1\C(=O)Nc2cccc(C#CCCCO)c21 [Compound B, (Z)-1,3-Dihydro-4-(5-hydroxy-1-pentynyl)-3-[(3-methoxy-1H-pyrrol-2-yl)methylene]-2H-indol-2-one] |
| < 4 | – | COc1cc[nH]c1/C=C1\C(=O)Nc2ccc(N)c(C#CCO)c21 [Compound BB, (Z)-5-Amino-1,3-dihydro-4-(3-hydroxy-1-propynyl)-3-[(3-methoxy-1H-pyrrol-2-yl)methylene]-2H-indol-2-one] |
| < 4 | – | COc1cc[nH]c1/C=C1\C(=O)Nc2ccc(NC(=O)c3ccncc3)c(C#CCO)c21 [DD, (Z)-N-[2,3-Dihydro-4-(3-hydroxy-1-propynyl)-3-[(3-methoxy-1H-pyrrol-2-yl)methylene]-2-oxo-1H-indol-5-yl]-4-pyridinecarboxamide] |
| < 4 | – | COC(=O)CCCC#Cc1cccc2c1/C(=C/c1[nH]ccc1OC)C(=O)N2 [E, (Z)-6-[2,3-Dihydro-3-[(3-methoxy-1H-pyrrol-2-yl)methylene]-2-oxo-1H-indol-4-yl]-5-hexynoic acid methyl ester] |
| < 4 | – | C#CCOCCO [Example 21, 3-(2-Hydroxyethoxy)-1-propyne] |
| < 4 | – | COC(=O)CCC#Cc1cccc2c1/C(=C/c1[nH]ccc1OC)C(=O)N2 [F, (Z)-5-[2,3-Dihydro-3-[(3-methoxy-1H-pyrrol-2-yl)methylene]-2-oxo-1H-indol-4-yl]-4-pentynoic acid methyl ester] |
| < 4 | – | COC(=O)CCC#Cc1c(N)ccc2c1/C(=C/c1[nH]ccc1OC)C(=O)N2 [FF, (Z)-5-[5-Amino-2,3-dihydro-3-[(3-methoxy-1H-pyrrol-2-yl)methylene]-2-oxo-1H-indol-4-yl]-4-pentynoic acid methyl ester] |
| < 4 | – | COc1cc[nH]c1/C=C1\C(=O)Nc2cccc(C#CCCCC(=O)O)c21 [G, (Z)-6-[2,3-Dihydro-3-[(3-methoxy-1H-pyrrol-2-yl)methylene]-2-oxo-1H-indol-4-yl]-5-hexynoic acid] |
